Species on record: Rattus norvegicus
Experiment: Open TG-GATES - Regimen: Daily Repeat
Assay type: toxicity, organism-based, Sprague-Dawley
Design: regimen Daily Repeat, gender Male, age 6 weeks
Details: in vivo, po, 0 mg/kg, route gavage, dose level Control; for APTT / Bas / Eos / Fbg / Hb / Ht / Lym / MCH / MCHC / MCV / Mono / Neu / PT / Plat / RBC / Ret / WBC: tissue Blood; for KIDNEY_L / KIDNEY_R / KIDNEY_TOTAL: tissue Kidney; for LIVER: tissue Liver; for A/G / ALP / ALT / AST / BUN / CRE / Ca / Cl / DBIL / GLC / IP / K / LDH / Na / PL / RALB / TBIL / TC / TG / TP / gamma-GTP: tissue Plasma

With COc1ccc(Cl)cc1C(=O)NCCc1ccc(S(=O)(=O)NC(=O)NC2CCCCC2)cc1 [GLYBURIDE] the TERMINAL_BW (72 h, time 3 day) was 234.5 g, the APTT (72 h, time 3 day) was 19.1 s and the Bas (72 h, time 3 day) was 0%. It also gave an Eos (72 h, time 3 day) of 0.8%, a Fbg (72 h, time 3 day) of 225.4 mg/dL and a Hb (72 h, time 3 day) of 13.3 g/dL. It also gave a Ht (72 h, time 3 day) of 39.9%, a Lym (72 h, time 3 day) of 81.6% and an MCH (72 h, time 3 day) of 21.1 pg. The MCHC (72 h, time 3 day) was 33.2%, the MCV (72 h, time 3 day) was 63.5 fL and the Mono (72 h, time 3 day) was 2.6%. It also gave a Neu (72 h, time 3 day) of 14.6%, a PT (72 h, time 3 day) of 12.1 s and a Plat (72 h, time 3 day) of 124.6 x10_4/uL. It also gave an RBC (72 h, time 3 day) of 628.4 x10_4/ul, a Ret (72 h, time 3 day) of 6.8% and a WBC (72 h, time 3 day) of 86.4 x10_2/uL. It also gave a KIDNEY_L (72 h, time 3 day) of 1 g, a KIDNEY_R (72 h, time 3 day) of 1 g and a KIDNEY_TOTAL (72 h, time 3 day) of 2 g. For the same molecule, the LIVER (72 h, time 3 day) was 11.7 g, the A/G (72 h, time 3 day) was 1.7 and the ALP (72 h, time 3 day) was 939.6 IU/L. The ALT (72 h, time 3 day) was 43.2 IU/L, the AST (72 h, time 3 day) was 66.4 IU/L and the BUN (72 h, time 3 day) was 15.2 mg/dL. It also gave a CRE (72 h, time 3 day) of 0.4 mg/dL, a Ca (72 h, time 3 day) of 10.9 mg/dL and a Cl (72 h, time 3 day) of 102.4 meq/L. It also gave a DBIL (72 h, time 3 day) of 0.1 mg/dL, a GLC (72 h, time 3 day) of 207 mg/dL and an IP (72 h, time 3 day) of 7.4 mg/dL. It also gave a K (72 h, time 3 day) of 4.2 meq/L, an LDH (72 h, time 3 day) of 159.2 IU/L and a Na (72 h, time 3 day) of 141 meq/L. For the same molecule, the PL (72 h, time 3 day) was 160.2 mg/dL, the RALB (72 h, time 3 day) was 3.5 g/dL and the TBIL (72 h, time 3 day) was 0.2 mg/dL. For the same molecule, the TC (72 h, time 3 day) was 86 mg/dL, the TG (72 h, time 3 day) was 92.6 mg/dL and the TP (72 h, time 3 day) was 5.6 g/dL. For the same molecule, the gamma-GTP (72 h, time 3 day) was 1.4 IU/L, the TERMINAL_BW ([…], time 7 day) was 268.9 g and the TERMINAL_BW ([…], time 14 day) was 320.1 g. For the same molecule, the TERMINAL_BW ([…], time 28 day) was 406.6 g, the APTT ([…], time 7 day) was 18.2 s and the Bas ([…], time 7 day) was 0%. For the same molecule, the Eos ([…], time 7 day) was 0.8%, the Fbg ([…], time 7 day) was 217.8 mg/dL and the Hb ([…], time 7 day) was 13.7 g/dL. It also gave a Ht ([…], time 7 day) of 40.6%, a Lym ([…], time 7 day) of 79.8% and an MCH ([…], time 7 day) of 21.2 pg. For the same molecule, the MCHC ([…], time 7 day) was 33.7%, the MCV ([…], time 7 day) was 63 fL and the Mono ([…], time 7 day) was 2.8%. The Neu ([…], time 7 day) was 16.2%, the PT ([…], time 7 day) was 12.4 s and the Plat ([…], time 7 day) was 121.3 x10_4/uL. It also gave an RBC ([…], time 7 day) of 644.2 x10_4/ul, a Ret ([…], time 7 day) of 5.5% and a WBC ([…], time 7 day) of 115 x10_2/uL. For the same molecule, the APTT ([…], time 14 day) was 21.1 s, the Bas ([…], time 14 day) was 0% and the Eos ([…], time 14 day) was 0.6%. The Fbg ([…], time 14 day) was 223.6 mg/dL, the Hb ([…], time 14 day) was 14.1 g/dL and the Ht ([…], time 14 day) was 41%. For the same molecule, the Lym ([…], time 14 day) was 79.8%, the MCH ([…], time 14 day) was 20.1 pg and the MCHC ([…], time 14 day) was 34.3%. It also gave an MCV ([…], time 14 day) of 58.5 fL, a Mono ([…], time 14 day) of 2.6% and a Neu ([…], time 14 day) of 16.4%. For the same molecule, the PT ([…], time 14 day) was 12.2 s, the Plat ([…], time 14 day) was 122.3 x10_4/uL and the RBC ([…], time 14 day) was 701 x10_4/ul. For the same molecule, the Ret ([…], time 14 day) was 4.3%, the WBC ([…], time 14 day) was 124.8 x10_2/uL and the APTT ([…], time 28 day) was 19.9 s. The Bas ([…], time 28 day) was 0%, the Eos ([…], time 28 day) was 1% and the Fbg ([…], time 28 day) was 211 mg/dL. For the same molecule, the Hb ([…], time 28 day) was 15.1 g/dL, the Ht ([…], time 28 day) was 43.1% and the Lym ([…], time 28 day) was 83.8%. The MCH ([…], time 28 day) was 20.1 pg, the MCHC ([…], time 28 day) was 35.1% and the MCV ([…], time 28 day) was 57.2 fL. The Mono ([…], time 28 day) was 2%, the Neu ([…], time 28 day) was 12.8% and the PT ([…], time 28 day) was 12.3 s. The Plat ([…], time 28 day) was 100.6 x10_4/uL, the RBC ([…], time 28 day) was 753.2 x10_4/ul and the Ret ([…], time 28 day) was 2.8%. For the same molecule, the WBC ([…], time 28 day) was 133.4 x10_2/uL, the KIDNEY_L ([…], time 7 day) was 1.2 g and the KIDNEY_R ([…], time 7 day) was 1.2 g. The KIDNEY_TOTAL ([…], time 7 day) was 2.3 g, the KIDNEY_L ([…], time 14 day) was 1.2 g and the KIDNEY_R ([…], time 14 day) was 1.3 g. The KIDNEY_TOTAL ([…], time 14 day) was 2.5 g, the KIDNEY_L ([…], time 28 day) was 1.3 g and the KIDNEY_R ([…], time 28 day) was 1.4 g. It also gave a KIDNEY_TOTAL ([…], time 28 day) of 2.7 g, an LIVER ([…], time 7 day) of 12.7 g and an LIVER ([…], time 14 day) of 14 g. It also gave an LIVER ([…], time 28 day) of 17.3 g, an A/G ([…], time 7 day) of 1.5 and an ALP ([…], time 7 day) of 926.8 IU/L. It also gave an ALT ([…], time 7 day) of 36.6 IU/L, an AST ([…], time 7 day) of 59.8 IU/L and a BUN ([…], time 7 day) of 16.8 mg/dL. It also gave a CRE ([…], time 7 day) of 0.4 mg/dL, a Ca ([…], time 7 day) of 10.8 mg/dL and a Cl ([…], time 7 day) of 102.8 meq/L. The DBIL ([…], time 7 day) was 0.1 mg/dL, the GLC ([…], time 7 day) was 217 mg/dL and the IP ([…], time 7 day) was 7.3 mg/dL. For the same molecule, the K ([…], time 7 day) was 3.9 meq/L, the LDH ([…], time 7 day) was 129.6 IU/L and the Na ([…], time 7 day) was 141.6 meq/L. The PL ([…], time 7 day) was 152 mg/dL, the RALB ([…], time 7 day) was 3.3 g/dL and the TBIL ([…], time 7 day) was 0.2 mg/dL. It also gave a TC ([…], time 7 day) of 71.6 mg/dL, a TG ([…], time 7 day) of 128.2 mg/dL and a TP ([…], time 7 day) of 5.5 g/dL. The gamma-GTP ([…], time 7 day) was 1 IU/L, the A/G ([…], time 14 day) was 1.5 and the ALP ([…], time 14 day) was 785.6 IU/L. For the same molecule, the ALT ([…], time 14 day) was 36.2 IU/L, the AST ([…], time 14 day) was 62.6 IU/L and the BUN ([…], time 14 day) was 14 mg/dL. For the same molecule, the CRE ([…], time 14 day) was 0.5 mg/dL, the Ca ([…], time 14 day) was 10.7 mg/dL and the Cl ([…], time 14 day) was 102.6 meq/L. The DBIL ([…], time 14 day) was 0.1 mg/dL, the GLC ([…], time 14 day) was 199.8 mg/dL and the IP ([…], time 14 day) was 6.6 mg/dL. For the same molecule, the K ([…], time 14 day) was 4 meq/L, the LDH ([…], time 14 day) was 154.6 IU/L and the Na ([…], time 14 day) was 140.4 meq/L. It also gave a PL ([…], time 14 day) of 155.2 mg/dL, an RALB ([…], time 14 day) of 3.6 g/dL and a TBIL ([…], time 14 day) of 0.2 mg/dL. For the same molecule, the TC ([…], time 14 day) was 74.6 mg/dL, the TG ([…], time 14 day) was 104.8 mg/dL and the TP ([…], time 14 day) was 6 g/dL. The gamma-GTP ([…], time 14 day) was 1.2 IU/L, the A/G ([…], time 28 day) was 1.5 and the ALP ([…], time 28 day) was 561.8 IU/L. It also gave an ALT ([…], time 28 day) of 31.4 IU/L, an AST ([…], time 28 day) of 60 IU/L and a BUN ([…], time 28 day) of 16.8 mg/dL. It also gave a CRE ([…], time 28 day) of 0.5 mg/dL, a Ca ([…], time 28 day) of 10.5 mg/dL and a Cl ([…], time 28 day) of 103.8 meq/L. It also gave a DBIL ([…], time 28 day) of 0.1 mg/dL, a GLC ([…], time 28 day) of 214 mg/dL and an IP ([…], time 28 day) of 6.6 mg/dL. The K ([…], time 28 day) was 3.9 meq/L, the LDH ([…], time 28 day) was 143.2 IU/L and the Na ([…], time 28 day) was 141.2 meq/L. For the same molecule, the PL ([…], time 28 day) was 143.8 mg/dL, the RALB ([…], time 28 day) was 3.5 g/dL and the TBIL ([…], time 28 day) was 0.2 mg/dL. It also gave a TC ([…], time 28 day) of 75.4 mg/dL, a TG ([…], time 28 day) of 91.2 mg/dL and a TP ([…], time 28 day) of 5.9 g/dL. The gamma-GTP ([…], time 28 day) was 0.8 IU/L.
